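Exposure lasted 48 hours, with cells grown in 96-well plates and compounds tested at five concentrations. At the GI50, growth is halved. The concentration for full growth arrest is given as TGI.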
Columns and labels:
Experiment in all cases: DTP human tumour cell line panel, 48 h
BT-549 breast = system: BT-549 breast
NCI-H522 lung = system: NCI-H522 lung
HOP-92 NSCLC = system: HOP-92 NSCLC
UACC-62 melanoma = system: UACC-62 melanoma
NCI-H23 lung = system: NCI-H23 lung
HT29 colon = system: HT29 colon
DU-145 prostate = system: DU-145 prostate
TK-10 renal = system: TK-10 renal
SK-OV-3 ovarian = system: SK-OV-3 ovarian
IGROV1 ovarian = system: IGROV1 ovarian
786-0 renal = system: 786-0 renal
COLO 205 colon = system: COLO 205 colon
MDA-MB-435 = system: MDA-MB-435
SF-295 CNS = system: SF-295 CNS
SF-268 CNS = system: SF-268 CNS
HOP-62 NSCLC = system: HOP-62 NSCLC
SK-MEL-2 melanoma = system: SK-MEL-2 melanoma
MDA-MB-231 breast = system: MDA-MB-231 breast
A498 renal = system: A498 renal
SNB-75 CNS = system: SNB-75 CNS
ACHN renal = system: ACHN renal
HS 578T breast = system: HS 578T breast
M14 melanoma = system: M14 melanoma
RXF 393 renal = system: RXF 393 renal
SF-539 CNS = system: SF-539 CNS
U251 CNS = system: U251 CNS
OVCAR-3 ovarian = system: OVCAR-3 ovarian
HL-60(TB) leukemia = system: HL-60(TB) leukemia
SNB-19 CNS = system: SNB-19 CNS
HCC-2998 colon = system: HCC-2998 colon
UACC-257 melanoma = system: UACC-257 melanoma
SK-MEL-5 melanoma = system: SK-MEL-5 melanoma
SR leukemia = system: SR leukemia
NCI/ADR-RES ovarian = system: NCI/ADR-RES ovarian
HCT-116 colon = system: HCT-116 colon
K-562 leukemia = system: K-562 leukemia
NCI-H460 lung = system: NCI-H460 lung
MOLT-4 leukemia = system: MOLT-4 leukemia
EKVX NSCLC = system: EKVX NSCLC
RPMI-8226 leukemia = system: RPMI-8226 leukemia
OVCAR-8 ovarian = system: OVCAR-8 ovarian
OVCAR-5 ovarian = system: OVCAR-5 ovarian
KM12 colon = system: KM12 colon
UO-31 renal = system: UO-31 renal
MALME-3M melanoma = system: MALME-3M melanoma
PC-3 prostate = system: PC-3 prostate
SK-MEL-28 melanoma = system: SK-MEL-28 melanoma
T-47D breast = system: T-47D breast
CCRF-CEM leukemia = system: CCRF-CEM leukemia
LOX IMVI melanoma = system: LOX IMVI melanoma
NCI-H226 lung = system: NCI-H226 lung

Work on `CCCCCN1C(=O)/C(=c2\sc3n(c2=O)C2C(NN=3)N(CC)C(=O)N2CC)c2ccccc21` (centres undefined) yielded a GI50 (BT-549 breast) of 2.41 µM, a TGI (BT-549 breast) of 10.7 µM and a GI50 (NCI-H522 lung) of 0.754 µM. For the same molecule, the TGI (NCI-H522 lung) was 2.29 µM, the GI50 (HOP-92 NSCLC) was 1.22 µM and the TGI (HOP-92 NSCLC) was 3.72 µM. For the same molecule, the GI50 (UACC-62 melanoma) was 1.06 µM, the TGI (UACC-62 melanoma) was 3.29 µM and the GI50 (NCI-H23 lung) was 1.83 µM. The TGI (NCI-H23 lung) was 5.23 µM, the GI50 (HT29 colon) was 1.65 µM and the TGI (HT29 colon) was 3.02 µM. It also gave a GI50 (DU-145 prostate) of 2.01 µM, a TGI (DU-145 prostate) of 4.52 µM and a GI50 (TK-10 renal) of 1.8 µM. It also gave a TGI (TK-10 renal) of 3.44 µM, a GI50 (SK-OV-3 ovarian) of 1.44 µM and a TGI (SK-OV-3 ovarian) of 2.92 µM. The GI50 (IGROV1 ovarian) was 1.65 µM, the TGI (IGROV1 ovarian) was 4.15 µM and the GI50 (786-0 renal) was 1.59 µM. For the same molecule, the TGI (786-0 renal) was 3.27 µM, the GI50 (COLO 205 colon) was 1.55 µM and the TGI (COLO 205 colon) was 3.56 µM. It also gave a GI50 (MDA-MB-435) of 0.32 µM, a TGI (MDA-MB-435) of 1.08 µM and a GI50 (SF-295 CNS) of 0.833 µM. The TGI (SF-295 CNS) was 3.21 µM, the GI50 (SF-268 CNS) was 1.49 µM and the TGI (SF-268 CNS) was 3.77 µM. For the same molecule, the GI50 (HOP-62 NSCLC) was 1.62 µM, the TGI (HOP-62 NSCLC) was 3.83 µM and the GI50 (SK-MEL-2 melanoma) was 1.55 µM. The TGI (SK-MEL-2 melanoma) was 3.3 µM, the GI50 (MDA-MB-231 breast) was 1.87 µM and the TGI (MDA-MB-231 breast) was 4.34 µM. It also gave a GI50 (A498 renal) of 0.274 µM, a TGI (A498 renal) of 1.67 µM and a GI50 (SNB-75 CNS) of 0.26 µM. It also gave a TGI (SNB-75 CNS) of 1.37 µM, a GI50 (ACHN renal) of 1.17 µM and a TGI (ACHN renal) of 2.58 µM. It also gave a GI50 (HS 578T breast) of 1.03 µM, a TGI (HS 578T breast) of 4.48 µM and a GI50 (M14 melanoma) of 1.28 µM. For the same molecule, the TGI (M14 melanoma) was 3.98 µM, the GI50 (RXF 393 renal) was 0.798 µM and the TGI (RXF 393 renal) was 2.83 µM. For the same molecule, the GI50 (SF-539 CNS) was 1.3 µM, the TGI (SF-539 CNS) was 2.61 µM and the GI50 (U251 CNS) was 1.31 µM. The TGI (U251 CNS) was 2.72 µM, the GI50 (OVCAR-3 ovarian) was 1.41 µM and the TGI (OVCAR-3 ovarian) was 3.01 µM. The GI50 (HL-60(TB) leukemia) was 1.91 µM, the TGI (HL-60(TB) leukemia) was 4.07 µM and the GI50 (SNB-19 CNS) was 1.88 µM. It also gave a TGI (SNB-19 CNS) of 5.25 µM.

In the case of `COc1ccc2nc3c(n2c1)C(=O)C(=O)c1ccccc1-3`, the GI50 (BT-549 breast) is reported as 1.39 µM, the TGI (BT-549 breast) is reported as 2.69 µM and the GI50 (NCI-H522 lung) is reported as 1.54 µM. It also gave a TGI (NCI-H522 lung) of 3.39 µM, a GI50 (HOP-92 NSCLC) of 3.09 µM and a TGI (HOP-92 NSCLC) of 9.53 µM. It also gave a GI50 (HCC-2998 colon) of 1.83 µM, a TGI (HCC-2998 colon) of 3.63 µM and a GI50 (UACC-62 melanoma) of 1.47 µM. The TGI (UACC-62 melanoma) was 2.9 µM, the GI50 (NCI-H23 lung) was 1.16 µM and the TGI (NCI-H23 lung) was 4.21 µM. For the same molecule, the GI50 (HT29 colon) was 2.59 µM, the TGI (HT29 colon) was 6.19 µM and the GI50 (DU-145 prostate) was 1.66 µM. For the same molecule, the TGI (DU-145 prostate) was 3.18 µM, the GI50 (UACC-257 melanoma) was 1.73 µM and the TGI (UACC-257 melanoma) was 3.13 µM. It also gave a GI50 (TK-10 renal) of 2.62 µM, a TGI (TK-10 renal) of 4.78 µM and a GI50 (SK-OV-3 ovarian) of 1.75 µM. It also gave a TGI (SK-OV-3 ovarian) of 3.57 µM, a GI50 (IGROV1 ovarian) of 1.75 µM and a TGI (IGROV1 ovarian) of 5.34 µM. The GI50 (SK-MEL-5 melanoma) was 1.67 µM, the TGI (SK-MEL-5 melanoma) was 3.06 µM and the GI50 (SR leukemia) was 2.53 µM. It also gave a TGI (SR leukemia) of 6.59 µM, a GI50 (786-0 renal) of 2.07 µM and a TGI (786-0 renal) of 4.4 µM. The GI50 (COLO 205 colon) was 2.73 µM, the TGI (COLO 205 colon) was 8.14 µM and the GI50 (MDA-MB-435) was 0.192 µM. For the same molecule, the TGI (MDA-MB-435) was 0.353 µM, the GI50 (SF-295 CNS) was 1.62 µM and the TGI (SF-295 CNS) was 3.03 µM. The GI50 (NCI/ADR-RES ovarian) was 2.06 µM, the TGI (NCI/ADR-RES ovarian) was 6.58 µM and the GI50 (HCT-116 colon) was 1.58 µM. For the same molecule, the TGI (HCT-116 colon) was 3.7 µM, the GI50 (K-562 leukemia) was 0.939 µM and the TGI (K-562 leukemia) was 6.09 µM. It also gave a GI50 (SF-268 CNS) of 2.05 µM, a TGI (SF-268 CNS) of 5.15 µM and a GI50 (NCI-H460 lung) of 1.63 µM. The TGI (NCI-H460 lung) was 3.65 µM, the GI50 (SK-MEL-2 melanoma) was 1.83 µM and the TGI (SK-MEL-2 melanoma) was 3.66 µM. It also gave a GI50 (MOLT-4 leukemia) of 2.43 µM, a TGI (MOLT-4 leukemia) of 5.81 µM and a GI50 (EKVX NSCLC) of 1.8 µM. It also gave a TGI (EKVX NSCLC) of 4.83 µM, a GI50 (MDA-MB-231 breast) of 2.53 µM and a TGI (MDA-MB-231 breast) of 10.6 µM. The GI50 (A498 renal) was 2.44 µM, the TGI (A498 renal) was 6.11 µM and the GI50 (SNB-75 CNS) was 1.4 µM. It also gave a TGI (SNB-75 CNS) of 2.77 µM, a GI50 (RPMI-8226 leukemia) of 1.52 µM and a TGI (RPMI-8226 leukemia) of 5.36 µM. For the same molecule, the GI50 (OVCAR-8 ovarian) was 2.41 µM, the TGI (OVCAR-8 ovarian) was 9.36 µM and the GI50 (OVCAR-5 ovarian) was 1.8 µM. For the same molecule, the TGI (OVCAR-5 ovarian) was 3.32 µM, the GI50 (KM12 colon) was 2.05 µM and the TGI (KM12 colon) was 5.04 µM. The GI50 (ACHN renal) was 1.46 µM, the TGI (ACHN renal) was 2.77 µM and the GI50 (UO-31 renal) was 1.31 µM. The TGI (UO-31 renal) was 2.62 µM, the GI50 (MALME-3M melanoma) was 1.55 µM and the TGI (MALME-3M melanoma) was 2.93 µM. For the same molecule, the GI50 (M14 melanoma) was 1.75 µM, the TGI (M14 melanoma) was 3.32 µM and the GI50 (PC-3 prostate) was 1.52 µM. It also gave a TGI (PC-3 prostate) of 9.02 µM, a GI50 (RXF 393 renal) of 1.84 µM and a TGI (RXF 393 renal) of 3.55 µM. It also gave a GI50 (SK-MEL-28 melanoma) of 1.89 µM, a TGI (SK-MEL-28 melanoma) of 3.52 µM and a GI50 (SF-539 CNS) of 1.82 µM. It also gave a TGI (SF-539 CNS) of 3.24 µM, a GI50 (T-47D breast) of 2.02 µM and a TGI (T-47D breast) of 5.5 µM. The GI50 (U251 CNS) was 1.51 µM, the TGI (U251 CNS) was 2.85 µM and the GI50 (CCRF-CEM leukemia) was 2.6 µM. The TGI (CCRF-CEM leukemia) was 6.62 µM, the GI50 (LOX IMVI melanoma) was 0.466 µM and the TGI (LOX IMVI melanoma) was 1.89 µM. The GI50 (HL-60(TB) leukemia) was 2.23 µM, the TGI (HL-60(TB) leukemia) was 5.57 µM and the GI50 (SNB-19 CNS) was 1.98 µM. The TGI (SNB-19 CNS) was 4.4 µM, the GI50 (NCI-H226 lung) was 2.03 µM and the TGI (NCI-H226 lung) was 4.89 µM.
